Entries after “also recorded” stand apart in the source; their conditions may differ.

Series [1] concerns rat bladder (rhythmic bladder contraction). The experiment in a line: Isovolumetric bladder rat model. The class given is in vivo. The method, then: (§1) To assess the activity of compound 1 in preclinical models of painful urologic syndromes as OBS we used an isovolumetric rat bladder animal model. A preliminary PK/ADMET study was conducted to assess the behaviour of compound 1 in vivo (Table S3).
Female Wistar rats (190–250 g) obtained from Charles River Laboratories were housed according to animal welfare guidelines. Rats were housed in a specific-pathogen-free environment under strictly controlled light cycle conditions, and food and water were provided ad libitum. All experimental protocols were carried out by Urosphere in accordance with the European Community Council Directive 86/609/EEC. They were performed in accordance with French legislation concerning the protection of laboratory animals and they were approved by French Ministry for Agriculture and Fisheries which provided a currently valid license for experiments on vertebrate animals to Dr. Philippe Lluel.
For intravenous administration, compound 1 was diluted in vehicle (10% of 2:1 solutol:NMP, 16% buffer, and 74% H2O) according to body weight to obtain doses of 10 mg/kg. For intravesical administration, compound 1 was diluted at a concentration of 7.56 mg/ml in a solution of 7% 2:1 solutol:NMP, […]. Eight rats were used for the control group and eight were used for the treated group.
Rats were anesthetized with urethane (1 g/kg, i.p.), given as a divided dose of 80% initially and 20% 15 min later. After abdominal incision, the ureters were ligated and sectioned. A catheter was placed into the bladder through the urethra. Then, the urethra was ligated at the level of the urinary meatus. For cystometric experiments with intravenous compound 1 administration a bladder catheter was connected via a T-tube to a strain gauge, which was used to measure the intravesical pressure. Isovolumetric bladder contractions were induced by stepwise injections of physiological saline at room temperature (100 μl every 5 min) until stable RBC occurred. After stabilization and a control period of at least 30 min, characterized by stable and reproducible bladder contractions (basal values), the test substance or vehicle was administered by intravenous infusion (1 mL within 5 min). The effects of compound 1 on micturition frequency (MF) (peaks/30 min), time of inhibition, and threshold volume (ml) (volume inducing RBC) were analyzed. The drug effects were evaluated from the end of the administration up to 1 hour after administration. For intravesical administration, compounds were administered intravesically 3 × 100 μl every 5 min. Then, the bladder was filled with 100 μl of saline every 5 min until the occurrence of rhythmic bladder contraction (RBC) with a maximal volume of 3 mL. […]

The target in the next series is T1, wt TRPM8 (Homo sapiens, UniProt Q7Z2W7).
T1 construct: expressed in transfected cells; host or cells: HEK-293, transient (Lipofectamine 2000)
T1 sequence (Q7Z2W7 whole entry): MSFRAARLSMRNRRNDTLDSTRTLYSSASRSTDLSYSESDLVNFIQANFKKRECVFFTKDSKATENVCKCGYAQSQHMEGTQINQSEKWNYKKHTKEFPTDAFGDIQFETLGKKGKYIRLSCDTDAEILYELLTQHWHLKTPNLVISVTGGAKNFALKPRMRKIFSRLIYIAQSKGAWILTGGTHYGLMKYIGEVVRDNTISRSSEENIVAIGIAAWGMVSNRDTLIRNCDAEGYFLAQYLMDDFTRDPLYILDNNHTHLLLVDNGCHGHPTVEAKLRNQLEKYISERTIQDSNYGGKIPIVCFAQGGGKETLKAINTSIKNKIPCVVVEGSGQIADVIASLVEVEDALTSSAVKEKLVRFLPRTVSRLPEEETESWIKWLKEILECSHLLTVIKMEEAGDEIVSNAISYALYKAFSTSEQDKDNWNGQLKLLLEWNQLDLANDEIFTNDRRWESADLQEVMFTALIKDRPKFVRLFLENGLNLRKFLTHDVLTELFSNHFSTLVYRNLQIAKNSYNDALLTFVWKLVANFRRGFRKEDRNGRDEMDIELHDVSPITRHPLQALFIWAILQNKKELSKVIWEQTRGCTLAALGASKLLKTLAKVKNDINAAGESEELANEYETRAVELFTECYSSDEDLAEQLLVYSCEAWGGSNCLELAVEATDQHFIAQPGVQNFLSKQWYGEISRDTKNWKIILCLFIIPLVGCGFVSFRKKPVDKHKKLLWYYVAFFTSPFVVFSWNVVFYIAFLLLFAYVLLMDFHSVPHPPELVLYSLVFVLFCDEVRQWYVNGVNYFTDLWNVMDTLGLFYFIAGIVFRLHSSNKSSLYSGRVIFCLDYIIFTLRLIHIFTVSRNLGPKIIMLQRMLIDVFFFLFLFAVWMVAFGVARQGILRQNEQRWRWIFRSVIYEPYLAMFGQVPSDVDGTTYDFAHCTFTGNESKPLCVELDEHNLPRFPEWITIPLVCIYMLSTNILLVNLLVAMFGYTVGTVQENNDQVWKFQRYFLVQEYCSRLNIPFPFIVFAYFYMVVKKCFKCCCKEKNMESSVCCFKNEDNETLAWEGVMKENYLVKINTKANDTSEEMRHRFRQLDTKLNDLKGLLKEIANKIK
The experiment in a line: Calcium mobilization on HEK-293 cells transiently transfected with wt myc-tagged TRPM8. The note with it: icilin at EC80, wt; read-out: pIC50, inhibition of icilin activation, wt TRPM8 (converted). Format: cell-based. The source says: Single point mutations were introduced in the hTRPM8-coding sequence, and the mutated TRPM8 was cloned as N-terminal c-myc tagged version into the pcDNA3 expression vector. This was done in that way that the single variations could be easily swapped from the myc-tagged expression construct into the non-tagged TRPM8 wild type expression construct.
The list of the variants is the following: variant 1, t2233g, a2234c (=Y745A); variant 2, a2236g, t2237c (=I746A); variant 3, a2395g, a2396c (=N799A) and variant 4, a2405c (D802A). The cloning project comprised three steps. First of all, a unique XhoI restriction site was inserted by site-directed mutagenesis (SDM) using DNA of the pcDNA3_TRPM8 construct as template. The 0.6 kb DNA fragment between the unique 5′ XhoI (introduced) and 3′ BamHI (already present) restriction sites comprised all positions of the four single point mutations and could be later used for their insertion as well as swapping between myc-tagged and non-tagged TRPM8 versions. […] The obtained data from at least four wells (as replicates) were analyzed with GraphPad PRISM® software (version 5, GraphPad Software Inc.) to calculate the mean and standard error of the mean[58], to create sigmoidal concentration-response curves and to calculate IC50 values.
In general terms: A change in cytosolic calcium serves as a functional read-out for many receptors and channels.

Series [2] can be described thus: Preliminary PK/ADMET study. The note with it: in vivo proof of concept; Table S3 not available. The method, then: as §1

As to `Clc1c(OCCNCc2ccco2)ccc2ccccc12` [Compound 1], the “Threshold volume versus vehicle, intravenous” value in series [1] (intravenous 10 mg/kg) is given as “No significant difference”. The “Micturition frequency (MF) 0–30 min post-administration” value in series [1] (intravenous 10 mg/kg, 0–30 min, 10 mg/kg) was “significantly decreased; also recorded: significantly reduced”. For the same molecule, the “Micturition frequency (MF) 30–60 min post-administration” value in series [1] (intravenous 10 mg/kg, 30–60 min) was “no effect”. Further, the “Occurrence of RBC, intravesical” value in series [1] (intravesical 2.268 mg) is given as “abolished the occurrence of RBC”. Further, at wt TRPM8, the IC50 is 63.1 nM. For the same molecule, the “PK/ADME properties” value in series [2] is recorded as “adequate”.

Source of the values: article PMC5591244, “Novel selective, potent naphthyl TRPM8 antagonists identified through a combined ligand- and structure-based virtual screening approach” (Scientific Reports, 2017).
